The text below walks through data of the OPERA property sets (Mansouri et al. 2018).

In general, logP refers to the decadic logarithm of the partition coefficient of the neutral form, usually between octanol and water. Low readings indicate a more hydrophilic compound, high ones a more lipophilic compound. `CCCCNC` returned a logP of 1.33.

Compound `NC(=O)c1ccc(C(O)C(CO)NC(=O)C(Cl)Cl)cc1` (stereo not drawn) returned a logP of -0.48.

Turning to `CNC(=O)Oc1cccc2c1OC(C)(C)C2`, the logP was 2.32.

The compound `C=C(C)c1ccccc1` yielded a logP of 3.48.

Consider `C=CC(N)=O`, for which the logP was -0.67.

The compound `CNS(=O)(=O)c1ccccc1` registered a logP of 0.92.

As for `COc1ccc(N(C)C)cc1`, the logP amounted to 1.42.

The compound `O=Cc1ccccn1` showed a logP of 0.44.

As for `CN1CC[C@]23c4c5ccc(O)c4O[C@H]2C(=O)CC[C@@]3(O)[C@H]1C5`, the logP is 0.83.

`NC(Cc1ccc(F)cc1)C(=O)O` (racemic) returned a logP of -1.89.

As to `O=C1NCN(c2ccccc2)C12CCN(CCCC(c1ccc(F)cc1)c1ccc(F)cc1)CC2`, the logP worked out at 5.86.

For `CCOc1cccc(C(=O)NP(=O)(N2CC2)N2CC2)c1`, the logP came out at 1.24.

The compound `COc1ccccc1NC(=O)Nc1ccccc1OC` gave a logP of 2.98.

Turning to `CCCC(=O)OC`, the logP stood at 1.29.

With `CC(C)N(C)/N=N/c1ccc(C(N)=O)cc1`, the logP came to 2.02.

Consider `CCCCCOC(=O)Nc1ccccc1`, for which the logP is 3.8.

`CC(C(c1ccccc1)c1ccccc1)[N+](=O)[O-]` (stereo not drawn) returned a logP of 3.91.

The compound `Clc1ccc(Cl)nc1` yielded a logP of 2.4.

In turn, `CN(C(N)=O)c1ccccc1` gave a logP of 0.42.

`CCCCCCC(NC(C)=O)C(=O)OC` (stereo not drawn) yielded a logP of 1.7.

Consider `CCCc1ccc([N+](=O)[O-])cc1`, for which the logP worked out at 3.45.

In the case of `Cn1c(N)nc2cc(Cl)ccc21`, the logP amounted to 2.09.

The compound `CCCCC(CC)COP(=O)(Oc1ccccc1)Oc1ccccc1` (stereo not drawn) had a logP of 5.73.

Consider `C1COC1`, for which the logP is -0.14.

`CCCCNc1nc(NC)nc(SC(F)F)n1` returned a logP of 3.7.

For `CC(=O)[C@H]1CC[C@H]2[C@@H]3CC=C4C[C@@H](O)CC[C@]4(C)[C@H]3CC[C@]12C`, the logP is 4.22.

As for `O=[N+]([O-])c1cccs1`, the logP was found to be 1.55.

For the compound `OCCCCCl`, the logP came to 0.85.

As for `CC(C)C(O)C(C(=O)O)c1ccc(-c2ccccc2)cc1` (stereo not drawn), the logP was found to be 3.84.

Compound `COC(=O)[C@H]1[C@H]2C[C@H]3c4[nH]c5ccccc5c4CCN3C[C@H]2CC[C@@H]1O` displayed a logP of 2.54.

The compound `Oc1cccc(O)c1` showed a logP of 0.8.

`CCc1ccc2ccccc2c1` came in with a logP of 4.38.

The compound `N#Cc1cccc(OCC(=O)O)c1` showed a logP of 0.95.

In turn, `Oc1ccc(Cn2cc[nH]c2=S)cc1F` displayed a logP of 1.12.

The compound `O=[N+]([O-])CCc1ccccc1` had a logP of 2.08.

On to `NC(=O)c1cccc(C(N)=O)c1`, for which the logP was -0.21.

For `CC(C)(C)c1ccccc1OCC(=O)O`, the logP is 3.33.

Consider `Cc1cc(N)ccc1Br`, for which the logP was 2.53.

Compound `Nc1cccnc1` showed a logP of 0.11.

Turning to `C#CCN(CC#C)CC#C`, the logP was found to be 1.27.

`NC(=O)C1CCN(CCCN2c3ccccc3Sc3ccc(Cl)cc32)CC1` showed a logP of 4.44.

Compound `CC(C)(C)C(=O)c1ccccc1` had a logP of 3.

On to `O=C(O)COc1ccc(S(=O)(=O)F)cc1`, for which the logP was 1.82.

For the compound `NC(C(=O)OCn1ncc2c(=O)[nH]cnc21)c1ccccc1` (stereo not drawn), the logP is -0.15.

`Oc1cc(Cl)c(Cl)cc1Cl`: the logP is 3.72.

Compound `C[C@]12CCC(=O)C=C1C=C[C@@H]1[C@@H]2CC[C@@]2(C)[C@H]1CC[C@@]21CCC(=O)O1` had a logP of 2.68.

On to `OCC(O)COc1ccccc1` (stereo not drawn), for which the logP was 0.7.

`CN(C)C(=O)Nc1cccc(Cl)c1`: the logP stood at 2.

Compound `O=NN(Cc1ccccc1)c1ccccc1` yielded a logP of 3.38.

In turn, `c1ccc(-c2cc3ccccc3[nH]2)nc1` registered a logP of 3.33.

The compound `O=C(O)c1cccc([N+](=O)[O-])c1C(=O)O` displayed a logP of 0.75.

`N#CCc1cccc(Oc2ccccc2)c1` yielded a logP of 3.03.

With `COc1cccc(S(C)(=O)=O)c1`, the logP was 0.76.

`CCOC(=O)NC` had a logP of 0.34.

`ClCCl` gave a logP of 1.25.

The compound `CCCCCCCC1(c2ccncc2)CCC(=O)NC1=O` (stereo not drawn) displayed a logP of 3.44.

In turn, `CC(=O)O[C@H]1C[C@H](O[C@H]2[C@@H](O)C[C@H](O[C@H]3[C@@H](O)C[C@H](O[C@H]4CC[C@@]5(C)[C@H](CC[C@@H]6[C@@H]5C[C@@H](O)[C@]5(C)[C@@H](C7=CC(=O)OC7)CC[C@]65O)C4)O[C@@H]3C)O[C@@H]2C)O[C@H](C)[C@H]1O[C@@H]1O[C@H](CO)[C@@H](O)[C@H](O)[C@H]1O` showed a logP of 0.07.

`O=C(O)Cc1ccccc1Nc1ccc(Cl)c(Cl)c1` yielded a logP of 4.9.

`CCCOc1c(OC)cc(CCN)cc1OC` yielded a logP of 1.7.

On to `CCOP(=S)(OCC)Oc1ccc([N+](=O)[O-])cc1`, for which the logP was determined as 3.83.

Regarding `O=S(=O)(CF)Nc1ccc(Cl)cc1`, the logP was determined as 2.25.

Compound `CC(=O)NC(C)C(=O)NC(C)C(=O)NC(C)C(=O)NC(C)(C)C` (stereo not drawn) had a logP of -0.51.

`ClC=C(Cl)Cl` displayed a logP of 2.42.

The compound `COc1ccccc1N` gave a logP of 1.18.

Consider `NC(=O)CF`, for which the logP was -1.05.

`O=C(O)CCC(Nc1ccc(Br)cc1)C(=O)O` (stereo not drawn) returned a logP of 1.12.

In turn, `CCCCCCC1CCC(=O)O1` (stereo not drawn) displayed a logP of 2.72.

As to `COC(=S)NCCn1c([N+](=O)[O-])cnc1C`, the logP was 1.15.

`CCCCCCCNC(=O)c1ccccc1`: the logP was found to be 3.94.

`Cc1cccc2c(N)cnnc12` yielded a logP of 1.57.

For `CN(C)C(N(C)C)=S(I)c1ccc(F)cc1` (stereo not drawn), the lipophilicity (logP) was -0.58.

`CCOC(C)=O` gave a logP of 0.73.

Turning to `Cc1cccc(C)c1NC(=O)C1CNCCN1` (stereo not drawn), the logP was found to be 0.38.

`Nc1ccc(-c2nc([N+](=O)[O-])c[nH]2)cc1` registered a logP of 0.86.

`CS(=O)(=O)Nc1ccccc1` had a logP of 0.95.

`O=C(O)COc1ccc(I)cc1` registered a logP of 2.69.

With `CCCN(CCC)CC(=O)OCn1ncc2c(=O)[nH]cnc21`, the logP is 1.27.

In the case of `CNC(=O)Nc1ccccc1`, the logP came out at 1.12.

Take `CCCC(=NOCC)C1C(=O)CC(C)(C)OC1=O` (stereo not drawn): the logP was determined as 2.56.

`Nc1ccc2c(n1)[nH]c1ccccc12` had a logP of 2.6.

Consider `CC(=O)Nc1cnc2ccccc2n1`, for which the logP amounted to 1.53.

`CC(C)(O)C(=O)O`: the logP was -0.36.

In turn, `CN(C)C(=O)OCc1cccc(N(C)C)c1` came in with a logP of 2.28.

`O=C(O)c1cccc2ccccc12` registered a logP of 3.1.

`CCC(C)NC(=O)C=C(SC)c1ccccc1` (stereo not drawn): the logP turned out to be 3.03.

The compound `COC(=O)c1ccc(-c2ncc([N+](=O)[O-])n2C)cc1` gave a logP of 1.63.

`CC(C)N(N=O)C(C)C` showed a logP of 1.38.

With `c1cn(C23CC4CC(CC(C4)C2)C3)cn1`, the logP was 2.9.

Take `CNCC(O)c1ccc(O)c(OC)c1` (stereo not drawn): the logP is -0.64.

`CC(C)c1ccc(OCC(=O)O)cc1` displayed a logP of 2.69.

Regarding `CN(C)/N=N/c1ccc2n[nH]cc2c1`, the logP is 2.36.

`CCC(=O)Nc1ccnc2cc(Cl)ccc12` returned a logP of 2.73.

Consider `Clc1cccc(-c2cc(Cl)ccc2Cl)c1`, for which the logP was found to be 5.76.

As to `c1ccc2[se]ccc2c1`, the logP is 3.19.

Regarding `Cc1cccc(C(=O)O)c1O`, the logP is 2.86.

For `Oc1ccccc1O`, the logP was determined as 0.88.

`CN` gave a logP of -0.57.

As to `CN1CCOCC1`, the logP is -0.33.

In the case of `O=C(O)c1cccs1`, the logP worked out at 1.57.

`CCOC(=O)CN(C(=O)CCl)c1c(CC)cccc1CC` showed a logP of 3.6.

In turn, `C1=Cc2ccc3c4c(ccc(c24)C1)-c1ccccc1-3` showed a logP of 5.78.

`CCCN(C)/N=N/c1ccc(C(N)=O)cc1` displayed a logP of 2.17.

For `COc1ccc(OCC(=O)O)cc1`, the logP was found to be 1.23.

In the case of `CNn1cc(C(=O)O)c(=O)c2cc(F)c(N3CCN(C)CC3)cc21`, the logP worked out at 0.23.

The compound `C=C(C)C(=O)OCC(C)O` (stereo not drawn) yielded a logP of 0.97.

The compound `FC(F)(Cl)Cl` returned a logP of 2.16.

`CNC(=O)Oc1ccc(I)cc1` displayed a logP of 2.46.

In turn, `CN1CCN(Cc2ccc(C(=O)OCn3ncc4c(=O)[nH]cnc43)cc2)CC1` yielded a logP of 1.47.

As to `O=C(O)CCCCCC(=O)O`, the logP amounted to 0.61.

With `c1ccc(C2CNCCO2)cc1` (stereo not drawn), the logP is 1.11.

Turning to `O=C(Nc1ccccc1)Nc1ccc(Cl)c(Cl)c1`, the logP was 4.7.

`COc1cc([N+](=O)[O-])c(OC)cc1CC(C)N` (stereo not drawn) displayed a logP of 1.74.

As to `Cn1c(N)nc2ccc(C#N)cc21`, the lipophilicity (logP) was 1.29.

As to `Clc1nc(Cl)c(Cl)c(Cl)c1Cl`, the logP was 3.53.

`Cc1cc(Cl)c(N=C2NCCN2)c(Cl)c1`: the logP worked out at 1.92.

Turning to `Nc1ncnc2ncn(C(c3ccccc3)c3ccccc3)c12`, the logP was found to be 3.19.

In turn, `CC(C)C(C)C` showed a logP of 3.42.

The compound `Clc1ccc(-c2cc3ccccn3c2)cc1` yielded a logP of 5.2.

Turning to `Sc1ccccc1`, the logP came to 2.52.

In turn, `O=COc1ccccc1` yielded a logP of 1.26.

In the case of `CS(=O)(=O)c1ccccc1`, the logP stood at 0.5.

Compound `CNCC(CC(C)C)c1ccccc1` (stereo not drawn) registered a logP of 3.76.

Turning to `Nc1ccc(C(=O)O)cc1O`, the logP is 0.5.

`COc1cc(Cl)c(Nc2ccccc2CC(=O)O)c(Cl)c1`: the logP came to 4.44.

`COc1ccc(S(I)=C(N(C)C)N(C)C)c([N+](=O)[O-])c1` (stereo not drawn) registered a logP of -0.22.

Turning to `Cc1ccc(C=C(C#N)C#N)cc1`, the logP was found to be 2.4.

Compound `CN(C)CCNC(=O)c1ccccc1` gave a logP of 1.1.

Compound `CCCCCCCOc1cccc(NC(=O)OCCN2CCCCC2)c1` came in with a logP of 5.53.

The compound `FC(Cl)Cl` displayed a logP of 1.55.

In turn, `COCCN(CCOC)N=O` yielded a logP of -0.38.

Consider `COc1c(Cl)ccc(Cl)c1C(=O)O`, for which the logP turned out to be 2.21.

For `O=C1CN=C(c2ccccc2C(F)(F)F)c2cc([N+](=O)[O-])ccc2N1`, the logP turned out to be 2.51.

In turn, `CC(=O)S[C@@H]1CC2=CC(=O)CC[C@]2(C)[C@H]2CC[C@@]3(C)[C@@H](CC[C@@]34CCC(=O)O4)[C@H]12` returned a logP of 2.78.
